# Assay results reported in US5608143A, “External regulation of gene expression” (E. I. Du Pont de Nemours and Company, priority 1994, dated 1997).
# Experiments:
# [1] = test system: tobacco T2 gene (T2 mRNA); experiment: Northern analysis of T2 mRNA in roots of chemically treated tobacco; assay type: in vivo, N. tabacum (Petite Havana SRI); settings: treated vs control plants
# Text: The procedures described for the isolation of the petunia cDNA clone P6.1 in Example 4 were repeated using N. tabacum (Petite Havana SRI) as the starting plant material. Differential screening of the resulting tobacco cDNA library prepared using poly(A)^+ RNA from the roots of N-(aminocarbonyl)-2-chlorobenzenesulfonamide-treated tobacco plants identified a cDNA clone representing an N-(aminocarbonyl)-2-chlorobenzenesulfonamide-inducible mRNA species. This clone was designated T2.
# A Northern blot of total RNA from the roots of untreated and N-(aminocarbonyl)-2-chlorobenzenesulfonamide-treated tobacco plants was probed with nick-translated T2.1 to determine the size of the corresponding T2 mRNA. The methods used for these procedures were described in Example 4.
# [2] = test system: petunia P6.1 gene (and endogenous tobacco T2.1 gene); experiment: RNAse protection analysis of petunia P6.1 gene expression in transgenic tobacco roots and callus; assay type: in vivo, tobacco (SR1)
# Description: Tobacco (SR1) was used as the recipient for transformation. In vitro grown leaf material was sliced into strips using a scalpel. The strips were dipped into Agrobacterium tumefaciens containing the construct P627 (bacterial concentration was 0.2 A550). Leaf pieces were placed on media containing MS major salts, MS minor salts, B5 vitamins, MS iron, 3% sucrose, 0.1 μg/l NAA, […], 0.7% TC agar, pH 5.8 and incubated for 2-3 days under growlights. Leaf material was removed and washed by placing in liquid culture medium containing […] and rotating gently for 3-4 hours. The leaf pieces were then placed on medium containing 100 μg/l carbinicillin and 300 mg/l kanamycin and transferred every 2 weeks. Shoots appeared after 2-8 weeks and were transferred to rooting medium (0.5× MS major salts, MS minor salts, iron, 1% sucrose, 0.8% agar, and 2 μM indolebutyric acid). Eight independent transformed plants were regenerated. […]
# The inducibility of the P6.1 gene was also examined in callus tissue derived from transformed tobacco plants. […] The inducibility of both the introduced petunia P6 gene and the endogenous tobacco T2.1 gene by N-(aminocarbonyl)-2-chlorobenzanesulfonamide treatment was evaluated using the RNAse protection analysis as described above. […]
smiles,measurement,setting,value
NC(=O)NS(=O)(=O)c1ccccc1Cl,hybridization of T2.1 to root RNA (Northern blot),[1],hybridized to an mRNA of 800 nt
same,expression of petunia P6 gene and endogenous tobacco T2.1 gene in callus (RNAse protection),"[2]; callus from transformed tobacco, 100 mg/l, 6 and 20 hours",strong expression of both genes was observed
same,inducible expression of the transferred petunia P6.1 gene in roots (RNAse protection),"[2]; transgenic tobacco (P627), hydroponic 200 mg/l, six hours",All eight transformants demonstrated inducible expression
